Molecules are shown by their SMILES. Where only a bound is given, the exact number is not on record here.

One experiment concerns Rattus norvegicus. The experiment is described as follows: Antihypertensive activity in spontaneously hypertensive Wistar-Okamoto rat assessed as duration of action at 1 mg/kg, po. It is filed as functional.
Conditions: not given
On to `FC(F)(F)c1cnc(-c2cccnc2)[nH]1`, for which the Time is 2 h.

For the compound `NNc1nncc2ccccc12` [HYDRALAZINE], the Time is 6 h.

The next experiment concerns Rattus norvegicus. The experiment is described as follows: Antihypertensive activity in spontaneously hypertensive Wistar-Okamoto rat assessed as duration of action at 20 mg/kg, po. The format is functional.
Conditions: not given
For `CC(C)(C)NCC(O)COc1ccc(-c2ncc(-c3ccccc3)[nH]2)cc1` (stereo not drawn), the Time is more than 24 h.

On to `Cc1cc(OCC(O)CNC(C)(C)C)cc(C)c1-c1ncc(C(F)(F)F)[nH]1` (stereo not drawn), for which the Time was 18 h.

Regarding `CC(C)(C)NC[C@@H](O)COc1ncccc1C#N.Cl`, the Time came out at 4 h.

The test system of another experiment is Rattus norvegicus. The experiment is described as follows: Antihypertensive activity in spontaneously hypertensive Wistar-Okamoto rat assessed as maximal fall in mean arterial pressure at 5 mg/kg, po. The format is functional, Artery.
Conditions: not given
In the case of `CC(C)(C)NCC(O)COc1ccc(-c2ncc(-c3ccccc3)[nH]2)cc1` (stereo not drawn), the Activity was determined as 30 mmHg.

Take `Cc1cc(OCC(O)CNC(C)(C)C)cc(C)c1-c1ncc(C(F)(F)F)[nH]1` (stereo not drawn): the Activity is given as 19 mmHg.

`CC(C)(C)NC[C@@H](O)COc1ncccc1C#N.Cl`: the Activity is given as 27 mmHg.

The subject of the next experiment is Rattus norvegicus. Put plainly: Antihypertensive activity in spontaneously hypertensive Wistar-Okamoto rat assessed as duration of action at 8 mg/kg, po. It is filed as functional.
Conditions: not given
`FC(F)(F)c1cnc(-c2cccnc2)[nH]1`: the Time is more than 6 h.

The next experiment has as its system Canis familiaris. The experiment is described as follows: Vasodilatory activity in anesthetized dog assessed as increase in iliac blood flow […] measured after 2000 ug/kg, iv beta-adrenergic receptor blocker timolol administration. The format is functional, Canis lupus familiaris, Artery.
Conditions: not given
As for `CC(C)(C)NCC(O)COc1ccc(-c2ncc(-c3ccccc3)[nH]2)cc1` (stereo not drawn), the Activity amounted to 42 mL/min.

With `CC(C)(C)NC[C@@H](O)COc1ncccc1C#N.Cl`, the Activity is 82 mL/min.

A further experiment deals with Canis familiaris. The experiment is described as follows: In vivo beta-adrenergic receptor blockade in iv dosed anesthetized dog assessed as inhibition of isoproterenol-induced tachycardia. It is filed as functional. To be noted: Canis lupus familiaris.
Usually ED50 stands for the midpoint of the dose-response relation. In the case of `CC(C)(C)NCC(O)COc1ccc(-c2ncc(-c3ccccc3)[nH]2)cc1` (stereo not drawn), the ED50 came out at 0.038 mg/kg.

`CC(C)(C)NC[C@@H](O)COc1ncccc1C#N.Cl`: the 50% effective dose (ED50) came out at 0.1 mg/kg.

For a further experiment, the system named is Canis familiaris. Put plainly: In vivo beta-adrenergic receptor blockade in iv dosed anesthetized dog assessed as inhibition of isoproterenol-induced hypotension. Conditions: Canis lupus familiaris. The format is functional.
Take `CC(C)(C)NCC(O)COc1ccc(-c2ncc(-c3ccccc3)[nH]2)cc1` (stereo not drawn): the ED50 stood at 0.083 mg/kg.

As to `CC(C)(C)NC[C@@H](O)COc1ncccc1C#N.Cl`, the ED50 came to 0.1 mg/kg.

The test system of another experiment is Rattus norvegicus. The experiment is described as follows: Antihypertensive activity in spontaneously hypertensive Wistar-Okamoto rat assessed as duration of action at 5 mg/kg, po. It is filed as functional.
Conditions: not given
Take `CC(C)(C)NCC(O)COc1ccc(-c2ncc(-c3ccccc3)[nH]2)cc1` (stereo not drawn): the Time was determined as 4 h.

For `Cc1cc(OCC(O)CNC(C)(C)C)cc(C)c1-c1ncc(C(F)(F)F)[nH]1` (stereo not drawn), the Time is 4 h.

For `CC(C)(C)NC[C@@H](O)COc1ncccc1C#N.Cl`, the Time stood at 1 h.

The next experiment relates to Rattus norvegicus. Put plainly: Antihypertensive activity in spontaneously hypertensive Wistar-Okamoto rat assessed as maximal fall in mean arterial pressure at 1 mg/kg, po. The format is functional, Artery.
Conditions: not given
As to `FC(F)(F)c1cnc(-c2cccnc2)[nH]1`, the Activity amounted to 21 mmHg.

Consider `NNc1nncc2ccccc12` [HYDRALAZINE], for which the Activity came out at 30 mmHg.

The next experiment deals with Rattus norvegicus. The experiment is described as follows: Antihypertensive activity in spontaneously hypertensive Wistar-Okamoto rat assessed as maximal fall in mean arterial pressure at 8 mg/kg, po.
Conditions: not given
The format is functional, Artery.
In the case of `FC(F)(F)c1cnc(-c2cccnc2)[nH]1`, the Activity came to 48 mmHg.

Another experiment deals with Canis familiaris. The experiment is described as follows: Vasodilatory activity in anesthetized dog assessed as increase in iliac blood flow at 64 mg, ia measured after 2000 ug/kg, iv beta-adrenergic receptor blocker timolol administration. It is filed as functional, Canis lupus familiaris, Artery.
Conditions: not given
In the case of `CC(C)(C)NC[C@@H](O)COc1ncccc1C#N.Cl`, the Activity amounted to 13 mL/min.

For another experiment, the system named is Rattus norvegicus. Put plainly: Antihypertensive activity in spontaneously hypertensive Wistar-Okamoto rat assessed as duration of action at 2 mg/kg, po. The format is functional.
Conditions: not given
Take `FC(F)(F)c1cnc(-c2cccnc2)[nH]1`: the Time came out at 6 h.

Take `NNc1nncc2ccccc12` [HYDRALAZINE]: the Time was more than 7 h.

The subject of the next experiment is Canis familiaris. Put plainly: Vasodilatory activity in anesthetized dog assessed as increase in iliac blood flow at 800 mg, ia. It is filed as functional, Canis lupus familiaris, Artery.
Conditions: not given
For the compound `FC(F)(F)c1cnc(-c2cccnc2)[nH]1`, the Activity was 93 mL/min.

The next experiment has as its system Rattus norvegicus. Put plainly: Antihypertensive activity in spontaneously hypertensive Wistar-Okamoto rat assessed as maximal fall in mean arterial pressure at 1.25 mg/kg, po. It is filed as functional, Artery.
Conditions: not given
As to `CC(C)(C)NCC(O)COc1ccc(-c2ncc(-c3ccccc3)[nH]2)cc1` (stereo not drawn), the Activity was determined as 20 mmHg.

Turning to `CC(C)(C)NC[C@@H](O)COc1ncccc1C#N.Cl`, the Activity is 22 mmHg.

Another experiment relates to Canis familiaris. Put plainly: Vasodilatory activity in anesthetized dog assessed as increase in iliac blood flow at 250 mg, ia measured after 2000 ug/kg, iv beta-adrenergic receptor blocker timolol administration. The format is functional, Canis lupus familiaris, Artery.
Conditions: not given
As for `CC(C)(C)NC[C@@H](O)COc1ncccc1C#N.Cl`, the Activity amounted to 22 mL/min.

A further experiment deals with Canis familiaris. The experiment is described as follows: Vasodilatory activity in anesthetized dog assessed as increase in iliac blood flow at 800 mg, ia measured after 800 ug/kg, iv beta-adrenergic receptor blocker timolol administration. The format is functional, Canis lupus familiaris, Artery.
Conditions: not given
For `FC(F)(F)c1cnc(-c2cccnc2)[nH]1`, the Activity turned out to be 76 mL/min.

The subject of a further experiment is Canis familiaris. Put plainly: Vasodilatory activity in anesthetized dog assessed as increase in iliac blood flow at 800 mg, ia measured after 320 ug/kg, iv beta-adrenergic receptor blocker timolol administration.
Conditions: not given
The format is functional, Canis lupus familiaris, Artery.
As to `FC(F)(F)c1cnc(-c2cccnc2)[nH]1`, the Activity was found to be 99 mL/min.

The subject of another experiment is Rattus norvegicus. Put plainly: Antihypertensive activity in spontaneously hypertensive Wistar-Okamoto rat assessed as maximal fall in mean arterial pressure at 20 mg/kg, po.
Conditions: not given
The format is functional, Artery.
As for `CC(C)(C)NCC(O)COc1ccc(-c2ncc(-c3ccccc3)[nH]2)cc1` (stereo not drawn), the Activity turned out to be 54 mmHg.

Regarding `Cc1cc(OCC(O)CNC(C)(C)C)cc(C)c1-c1ncc(C(F)(F)F)[nH]1` (stereo not drawn), the Activity amounted to 30 mmHg.

For the compound `CC(C)(C)NC[C@@H](O)COc1ncccc1C#N.Cl`, the Activity stood at 40 mmHg.

The test system of another experiment is Canis familiaris. The experiment is described as follows: Vasodilatory activity in anesthetized dog assessed as increase in iliac blood flow […] ia.
Conditions: not given
The format is functional, Canis lupus familiaris, Artery.
As to `CC(C)(C)NCC(O)COc1ccc(-c2ncc(-c3ccccc3)[nH]2)cc1` (stereo not drawn), the Activity came out at 46 mL/min.

In the case of `Cc1cc(OCC(O)CNC(C)(C)C)cc(C)c1-c1ncc(C(F)(F)F)[nH]1` (stereo not drawn), the Activity is 7 mL/min.

As to `NNc1nncc2ccccc12` [HYDRALAZINE], the Activity amounted to 66 mL/min.

Another experiment relates to Rattus norvegicus. Put plainly: Antihypertensive activity in spontaneously hypertensive Wistar-Okamoto rat assessed as maximal fall in mean arterial pressure at 2 mg/kg, po. The format is functional, Artery.
Conditions: not given
On to `FC(F)(F)c1cnc(-c2cccnc2)[nH]1`, for which the Activity worked out at 39 mmHg.

Regarding `NNc1nncc2ccccc12` [HYDRALAZINE], the Activity is given as 40 mmHg.

These data come from ChEMBL document CHEMBL3244122, “Symbiotic approach to drug design: antihypertensive beta-adrenergic blocking agents” (J Med Chem, 1979).
